# Measurements taken from the Deep4Chem optical property database.
# Assay: solvent given as SMILES
# Details: in CN(C)C=O
row,Structure (SMILES),emission maximum [nm]
1,CCN(CC)c1ccc2cc(/C=C/C3=C4CC/C(=C\c5cc6ccc(N(CC)CC)cc6oc5=O)C4=[O+][B-](F)(F)O3)c(=O)oc2c1,758

# Same assay, conditions: in CO
row,emission maximum [nm],Structure (SMILES)
1,490,CCOC(=O)c1ccc(O)c(-c2[nH]c(=O)n3c2-c2ccccc2C3=O)c1
2,600.5,Cc1ccccc1C1=C2C=c3c(oc4ccc(C(C)(C)C)cc34)=[N+]2[B-](F)(F)n2c1cc1c3cc(C(C)(C)C)ccc3oc12
3,426,COc1c2ccccc2c(OC)c2c1c1cc(C)ccc1n2C
4,616,Nc1ccc2c(c1)C(=O)c1ccc(N)cc1C2=O
5,700,Cc1nc2c(ccc3c2sc(/C=C/C=C/c2ccc(N(C)C)cc2)[n+]3C)s1
6,338,COC(=O)C[C@H](Cc1c[nH]c2ccccc12)NC(=O)[C@H](CC(=O)N[C@@H](CC1=CCc2ccccc21)C(=O)OC)NC(=O)[C@H](Cc1c[nH]c2ccccc12)NC(=O)OC(C)(C)C
7,599,N#CSC1=CC2=C(c3ccccc3)c3ccc(N4CCOCC4)n3[B-](F)(F)[N+]2=C1N1CCOCC1

row,Structure (SMILES),emission maximum [nm]
1,O=C(O)c1ccc2ccc3cccc4ccc1c2c34,380
2,CN(C)c1ccc2c(c1)C(=O)NC2=O,534
3,O=P1(c2ccccc2)C2=C(c3ccccc31)[Si](c1ccccc1)(c1ccccc1)c1cc(N(c3ccccc3)c3ccccc3)ccc12 (centres undefined),640

# Same assay, conditions: in CS(C)=O
row,emission maximum [nm],Structure (SMILES)
1,598,C(=C\c1cnc2ccccc2n1)/c1ccc(N(c2ccccc2)c2ccccc2)cc1
2,572,CCN(CC)c1ccc2c(c1)oc(=O)c1c(=O)oc3c(OC)cccc3c12
3,376,COC(=O)[C@@H]1C(=O)Oc2ccccc2[C@H]1c1c[nH]c2ccccc12

row,Structure (SMILES),emission maximum [nm]
1,CCN(CC)c1ccc2cc(/C=C/C3=C4CC/C(=C\c5cc6ccc(N(CC)CC)cc6oc5=O)C4=[O+][B-](F)(F)O3)c(=O)oc2c1,780

# Same assay, conditions: in Cc1ccccc1
row,Structure (SMILES),emission maximum [nm]
1,Cc1c(-c2nc(-c3ccccc3)nc(-c3ccccc3)n2)ccc(-n2c3ccccc3c3cc4c(cc32)C2c3ccccc3C4c3ccccc32)c1C,427
2,O=C(O)c1ccc2ccc3cccc4ccc1c2c34,392
3,COc1ccc(C2=[N+]3C(=Nc4c(-c5cc(OC)c(OC)c(OC)c5)c(-c5ccc(C(C)(C)C)cc5)c(-c5ccc(OC)cc5)n4[B-]3(F)F)C(c3cc(OC)c(OC)c(OC)c3)=C2c2ccc(C(C)(C)C)cc2)cc1,726
4,O=Cc1ccc(N(c2ccc(C=O)cc2)c2ccc(-c3ccc4c(c3)C(=O)c3ccccc3C4=O)cc2)cc1,558
5,CC1(C)c2ccccc2N(c2ccc3c(c2)C2(c4cc(N5c6ccccc6C(C)(C)c6ccccc65)ccc4-3)c3ccccc3S(=O)(=O)c3ccccc32)c2ccccc21,437
6,CCN(CC)c1ccc2cc(/C=C/C3=C4CC/C(=C\c5cc6ccc(N(CC)CC)cc6oc5=O)C4=[O+][B-](F)(F)O3)c(=O)oc2c1,658
7,O=P1(c2ccccc2)C2=C(c3ccccc31)[Si](c1ccccc1)(c1ccccc1)c1cc(N(c3ccccc3)c3ccccc3)ccc12 (centres undefined),558
8,Cc1cc(-c2nc(-c3ccccc3)nc(-c3ccccc3)n2)ccc1N1c2ccccc2CCc2ccccc21,481.75
9,Cc1ccc2c(c1)C(c1ccccc1)(c1ccccc1)c1cc(C)ccc1N2c1ccc2c(c1)Sc1ccccc1B2c1c(C(C)C)cc(C(C)C)cc1C(C)C,493
10,c1cc2ccc3ccc4cc3c2cc1c1ccc2c(c1)c1cc(ccc1[C@]13OCCO[C@]21OCCO3)c1ccc2c(c1)c1cc4ccc1[C@]13OCCO[C@]21OCCO3,388

# Same assay, conditions: in ClC(Cl)(Cl)Cl
row,Structure (SMILES),emission maximum [nm]
1,O=Cc1ccc(N(c2ccc(C=O)cc2)c2ccc(-c3ccc4c(c3)C(=O)c3ccccc3C4=O)cc2)cc1,541

# Same assay, conditions: in ClC(Cl)Cl
row,emission maximum [nm],Structure (SMILES)
1,435,F[B-]1(F)OC(c2cccc(Br)c2)=Cc2ccc3ccccc3[n+]21
2,731,Cc1ccc(/C2=c3\cc/c(o3)=C(\c3ccc(C)cc3)c3ccc([nH]3)-c3ccc4n3[B-](F)(F)[N+]3=C(C=CC3=C4c3ccco3)c3ccc2[nH]3)cc1
3,696,Cc1nc2c(ccc3c2sc(/C=C/C=C/c2ccc(N(C)C)cc2)[n+]3C)s1
4,576,Cc1cccc(C)c1-c1cc2c(C)c3c4cc5nc6ccc7c8c(C)c9cc(-c%10c(C)cccc%10C)c(-c%10c(C)cccc%10C)cc9c(C)c8c7c6nc5cc4c3c(C)c2cc1-c1c(C)cccc1C
5,457,COc1ccc(C2=Cc3ccc4ccccc4[n+]3[B-](F)(F)O2)cc1
6,383,Cc1c2c(nc3ccccc13)-c1cc3c(cc1CC2)-c1nc2ccccc2c(C)c1CC3
7,517,O=C1NC(=O)c2ccc(N3CCCCC3)c3cccc1c23
8,410,Cc1ccc(-n2c3ccc(-c4ccc(-c5nc6ccccc6n5-c5ccccc5)cc4)cc3c3cc(-c4ccc(-c5nc6ccccc6n5-c5ccccc5)cc4)ccc32)cc1

row,Structure (SMILES),emission maximum [nm]
1,CCN(CC)c1ccc2cc(/C=C/C3=C4CC/C(=C\c5cc6ccc(N(CC)CC)cc6oc5=O)C4=[O+][B-](F)(F)O3)c(=O)oc2c1,706

# Same assay, conditions: in ClCCl
row,emission maximum [nm],Structure (SMILES)
1,474,CCOC(=O)c1ccc(O)c(-c2[nH]c(=O)n3c2-c2ccccc2C3=O)c1
2,545,CCCCN1C(=O)C2=C(c3ccc(-c4ccccc4)cc3)NC(=O)C2=C1c1ccc(-c2ccccc2)cc1
3,575,CC(C)(C)OC(=O)/C=C/C1=CC2=C(c3ccccc3)c3cccn3[B-](F)(F)[N+]2=C1
4,565,C(=C\c1cnc2ccccc2n1)/c1ccc(N(c2ccccc2)c2ccccc2)cc1
5,463,COc1cc(/C=C/c2ncc(-c3ccncc3)o2)cc(OC)c1OC
6,428,COc1c2ccccc2c(OC)c2c1c1cc(C)ccc1n2C
7,465,CN1CCN(c2cccc(/C=C/c3ncc(-c4ccc(OCc5ccccc5)c(OCc5ccccc5)c4)o3)c2)CC1
8,530,CCN(CC)c1ccc2c(c1)oc(=O)c1c(=O)oc3c(OC)cccc3c12
9,401,CCOC(=O)c1c(-c2cc3ccccc3oc2=O)nn(-c2cccc(F)c2)c1C(=O)OCC
10,553,CCOC(=O)CCCCCn1c2ccc([N+](=O)[O-])cc2c(=O)c2cc3c(cc21)c(=O)c1cc([N+](=O)[O-])ccc1n3CCCCCC(=O)OCC
11,421,CCOC(=O)c1c(-c2cc3ccc(OC)cc3oc2=O)nn(-c2ccccc2)c1C(=O)OCC
12,527,Clc1ccc2nc3cc4ccccc4cc3c(-c3ccccc3)c2c1
13,541,F[B-]1(F)n2c(Cl)c(Cl)c(Br)c2C(Oc2ccccc2)=C2C(Br)=C(Cl)C(Cl)=[N+]21
14,603,N#CSC1=CC2=C(c3ccccc3)c3ccc(N4CCOCC4)n3[B-](F)(F)[N+]2=C1N1CCOCC1
15,620,COc1ccc(-c2c3cc4ccccc4cc3c(C#Cc3ccccc3)c3cc4cc(C)sc4cc23)cc1
16,456,c1ccc(-c2ccc(-c3cn4ccc[n+]4[n-]3)cc2)cc1

row,Structure (SMILES),emission maximum [nm]
1,O=C(O)c1ccc2ccc3cccc4ccc1c2c34,394
2,O=Cc1ccc(N(c2ccc(C=O)cc2)c2ccc(-c3ccc4c(c3)C(=O)c3ccccc3C4=O)cc2)cc1,685
3,CCN(CC)c1ccc2cc(/C=C/C3=C4CC/C(=C\c5cc6ccc(N(CC)CC)cc6oc5=O)C4=[O+][B-](F)(F)O3)c(=O)oc2c1,730

# Same assay, conditions: in O
row,Structure (SMILES),emission maximum [nm]
1,O=C([O-])c1cc(N2C(=O)C=CC2=O)ccc1-c1c2cc(F)c(=O)cc-2oc2cc([O-])c(F)cc12,520
2,CN(C)c1ccc2c(c1)C(=O)NC2=O,562

# Same assay, conditions: in O=P(c1ccccc1)(c1ccccc1)c1ccc2oc3ccc(P(=O)(c4ccccc4)c4ccccc4)cc3c2c1
row,Structure (SMILES),emission maximum [nm]
1,Cc1ccc2c(c1)C(c1ccccc1)(c1ccccc1)c1cc(C)ccc1N2c1ccc2c(c1)Sc1ccccc1B2c1c(C(C)C)cc(C(C)C)cc1C(C)C,497

# Same assay, conditions: in O=P(c1ccccc1)(c1ccccc1)c1ccccc1Oc1ccccc1P(=O)(c1ccccc1)c1ccccc1
row,Structure (SMILES),emission maximum [nm]
1,Cc1c(-c2nc(-c3ccccc3)nc(-c3ccccc3)n2)ccc(-n2c3ccccc3c3cc4c(cc32)C2c3ccccc3C4c3ccccc32)c1C,435

# Same assay, conditions: in OCC(F)(F)F
row,emission maximum [nm],Structure (SMILES)
1,436,Cc1cc2c(o1)c(Br)cc1c(C)cc(=O)oc12
